Measurements from PMC7822874, “Chemoprotective antimalarials identified through quantitative high-throughput screening of Plasmodium blood and liver stage parasites” (Scientific Reports, 2021).
Where two headings read alike, the source gives them in different places.

Legend:
[1] = molecular target: Firefly luciferase (Fluc, EC 1.13.12.7) (Photinus pyralis, UniProt P08659); assay: biochemical; parameters: single determination (the paper says generally: 'qHTS assays were performed in a single replicate with a 7- to 11-point dose response format'; it is not stated for this counterscreen itself)
[2] = tested on: Plasmodium falciparum Dd2 asexual blood stage parasites; assay: microbe, parasite or virus in culture; parameters: species or system Plasmodium falciparum Dd2 in human erythrocytes; single determination (one 11-point concentration-response curve); settings: Plasmodium falciparum, DD2, Erythrocyte, 72 h; read-out: AC50
HepG2-A16-CD81EGFP cells = settings: average of 2 wells
[3] = tested on: P. berghei-ANKA-GFP-LucCON liver stage parasites in HepG2-A16-CD81EGFP cells; assay: P. berghei liver stage Pb-Luc assay, Method 1 (UCSD, 1536-well); assay type: cell-based, Plasmodium berghei; settings: Plasmodium berghei, 48 h, P. berghei liver stage, average of 2 wells on a 1536 well plate; for activity at 1 µM: 1 µM compound treatment (10 mM stocks); for activity at 3 µM: 3 µM compound treatment (10 mM stocks)
HepG2 = settings: human, hepg2 cells, 48 h
in vitro [4] = settings: human, HepG2-A16-CD81EGFP cells, uninfected
in vitro [5] = settings: human, hepg2 cells
in vitro [6] = settings: human, HepG2 cells; n = 1
[7] = tested on: luciferase-expressing P. berghei liver stage parasites in HepG2 cells; assay: Inhibition of liver-stage development assay (ILSDA), Method 2 (WRAIR, 96-well); assay type: cell-based, Plasmodium berghei; settings: for AC50: Plasmodium berghei, HepG2, Method 2

Sequence of Firefly luciferase (Fluc, EC 1.13.12.7) (P08659 whole entry): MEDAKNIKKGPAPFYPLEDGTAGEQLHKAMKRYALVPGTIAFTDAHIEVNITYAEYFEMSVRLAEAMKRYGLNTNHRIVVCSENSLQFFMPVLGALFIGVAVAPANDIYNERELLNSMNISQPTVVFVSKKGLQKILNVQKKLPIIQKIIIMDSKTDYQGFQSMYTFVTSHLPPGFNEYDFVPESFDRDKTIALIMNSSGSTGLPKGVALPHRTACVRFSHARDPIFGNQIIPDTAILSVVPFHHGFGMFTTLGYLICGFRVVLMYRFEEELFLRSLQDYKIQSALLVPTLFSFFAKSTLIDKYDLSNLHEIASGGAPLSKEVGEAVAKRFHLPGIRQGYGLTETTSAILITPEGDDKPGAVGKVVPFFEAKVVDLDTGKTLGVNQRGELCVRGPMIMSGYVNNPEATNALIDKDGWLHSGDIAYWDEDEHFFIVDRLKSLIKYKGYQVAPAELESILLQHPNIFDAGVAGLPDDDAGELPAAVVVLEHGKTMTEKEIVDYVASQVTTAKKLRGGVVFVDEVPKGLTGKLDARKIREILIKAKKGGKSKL

Compound	AC50 [1]	AC50 [2]	further results
N#CC(=C1CCCC1)c1nc(-c2ccccc2O)cs1 [MLS000034824-01]	19.2 µM	9.44 µM	
Cc1nn(-c2ccccc2)c(C)c1/C=N/Nc1nc2ccccc2[nH]1 [MLS000332160-01]	12.1 µM	1.5 µM	HepG2 1uM growth rep1 (HepG2-A16-CD81EGFP cells; HepG2, 1 µM compound treatment (10 mM stocks), replicate 1, normalized): 93%; HepG2 1uM growth rep2 (HepG2-A16-CD81EGFP cells; HepG2, 1 µM compound treatment (10 mM stocks), replicate 2, normalized): 90%; HepG2 3uM growth rep1 (HepG2-A16-CD81EGFP cells; HepG2, 3 µM compound treatment (10 mM stocks), replicate 1, normalized): 89%; HepG2 3uM growth rep2 (HepG2-A16-CD81EGFP cells; HepG2, 3 µM compound treatment (10 mM stocks), replicate 2, normalized): 86%; activity at 1 µM ([3]; replicate 1, normalized, read-out: PbLuc 1uM growth rep1): 86%; activity at 1 µM ([3]; replicate 2, normalized, read-out: PbLuc 1uM growth rep2): 81%; activity at 3 µM ([3]; replicate 1, normalized, read-out: PbLuc 3uM growth rep1): 33%; activity at 3 µM ([3]; replicate 2, normalized, read-out: PbLuc 3uM growth rep2): 53%
Cc1ccc2[nH]c(-c3sc4nc(C)ccc4c3N)nc2c1 [MLS000547128-01]	12.1 µM		
CCN(CC)CCN1C(=O)c2ccccc2NC1c1ccc(N(C)C)cc1 (centres unmarked) [MLS000554078-01]	1.92 µM	4.22 µM	
COC(=O)c1nn(-c2ccc3c(c2)CCN3C(C)=O)cc1O [MLS000565173-01]	10.8 µM		
CCOC(=O)Cc1csc(NC(=S)NC(=O)c2ccc(C)cc2)n1 [MLS000574610-01]	9.62 µM		
Cc1ccc(-c2nc(C)c(C(=O)O)s2)cc1 [MLS000735996-01]	13.6 µM		
Cc1ccc2nc(N3C(=O)CNC3=S)sc2c1 [MLS000768544-01]	10.8 µM		
CC1(C)Cc2nc3sc4c(SCC(=O)O)ncnc4c3cc2CO1 [MLS000778156-01]	10.8 µM		
CCCc1ccc(C(=O)NC(=O)c2ccccc2O)cc1 [MLS000850457-01]	5.41 µM	1.06 µM	Max Resp (signal direction of the dose response) ([7]; Method 2, Decrease = decreasing P. berghei viability with dose, Increase = increasing signal, Inactive = no dose response): Decrease; AC50 ([7]; Hill fit, 50% of maximum activity response, read-out: AC50): 0.282 µM; AC50 ([7]; log10 of molar AC50 from Hill fit, read-out: Log AC50 (converted)): 0.282 µM; viability at 48 h, 1 µM (in vitro [4]): 101%; viability at 48 h, 3 µM (in vitro [4]): 94%

Continued, in another order:

AC50 [1]	Compound	AC50 [2]	further results
6.81 µM	O=C(O)COc1ccc(-c2nccc(-c3cccs3)n2)cc1 [MLS000331320-01]		
8.57 µM	c1ccc2sc(Sc3ncnc4sccc34)nc2c1 [MLS000334432-01]	0.944 µM	
12.1 µM	Cc1ccc(-c2cc(O)c3cc(C)ccc3n2)cc1 [MLS000517822-01]	10.6 µM	
19.2 µM	Cc1cccnc1Nc1nc(-c2ccccn2)cs1 [MLS000528306-01]	0.473 µM	Log AC50 (M) (HepG2): -5.9643 M; viability at 48 h, 1 µM (in vitro [4]): 57%; viability at 48 h, 3 µM (in vitro [4]): 30%; CC50 at 48 h (in vitro [5]): 1.09 µM
12.1 µM	Cc1ccc(C)c(/N=N/c2nc3ccccc3n2C)c1 [MLS000577452-01]	0.299 µM	viability at 48 h, 1 µM (in vitro [4]): 95%; viability at 48 h, 3 µM (in vitro [4]): 88%
9.62 µM	NC(=NOC(=O)/C=C/c1ccc(Br)cc1)c1ccccn1 [MLS000680558-01]		
6.81 µM	Cn1c(/N=N/c2ccccc2)nc2ccccc21 [MLS000700530-01]	0.841 µM	CC50 at 48 h (in vitro [6]): 12.2 µM; viability at 48 h, 1 µM (in vitro [4]): 91%; viability at 48 h, 3 µM (in vitro [4]): 70%
8.57 µM	O=C(COc1ccc2ccccc2c1)Nc1nccs1 [MLS000718732-01]		
13.6 µM	Cc1cc(C(N)=NOC(=O)c2ccccc2Cl)no1 [MLS000833967-01]		
